{
  "source": "patent US20050261162A1",
  "about": "“Pharmaceutical composition for preventing and treating cancer and treating an inflammation” (priority 2001, published 2005)",
  "key": {"HL-60 cells": {"tested_on": "HL-60 cells", "test": "Flow cytometric cell cycle analysis of HL-60 cells (sub-G1 phase)", "format": "cell-based, Human", "settings": "24 hours, control 20%", "procedure": "The effect of xanthorrhizol on cell cycle was examined by flow cytometric analysis. HL-60 cells were cultured in serum-free RPMI 1640 medium for 48 hr to stop cell cycle at GO phase. The medium was exchanged to 10% FBS-RPMI 1640 media with 0, 20, 60 μM of xanthorrhizol, respectively. 24 hours later, the cells obtained after centrifugation were fixed in 70% ethanol at −20° C. overnight. The cells were washed twice again with PBS, and incubated with 100 U/ml of Rnase at 37° C. for 1 hr. The cell pellet was resuspended in propidium iodide solution after washing twice with PBS. The cells were analyzed by flow cytometry and the result was represented at FIG. 11."}, "quinone reductase (QR)": {"tested_on": "quinone reductase (QR)", "test": "Induction of quinone reductase activity in Hepa 1c1c7 cells", "format": "cell-based, rat", "settings": "48 hours, compared with the control", "procedure": "Hepa 1c1c7 cell (2.5×10^4/ml), a liver cancer cell of […], was seeded into 96 well plate and was cultured in 10% FBS-αL-MEM (Gibco BRL) at 37° C. for 24 hours in 5% CO2 of humidified air. 190 μl of fresh media and 10 μl of xanthorrhizol dissolved in 10% of DMSO was added to above culture media and it was cultured under 5% CO2 at 37° C. for 48 hours. The culture media were discarded, and after washing with PBS (phosphate buffered saline), 50 μl of reaction solution containing 0.8% digitonin and 2 mM EDTA was added to each well, and it was cultured for 10 minutes to destroy the cell. […] Then, 50 μl of 5 mM potassium phosphate (pH 7.4) solution containing 0.3 mM of dicoumarol was added to terminate the reaction and the absorbance at 595 nm was measured spectrophotometrically.\nTo assess the effect of xanthorrhizol on cell growth, protein was measured in the 2nd plate set cultured under same condition above. […] And 200 μl of 0.5% SDS was added to cell and mixed, then the absorbance at 595 nm was measured spectophotometrically.\nTo estimate the experimental result, firstly, QR specific activity of each group treated with xanthorrhizol and the control group was calculated by following equation 1. […] QR specific activity=(Absorbance change of MTT per min/Absorbance change of crystal violet)×3247 nmol/mg [Equation 1] […]"}, "iNOS": {"target": "T1, iNOS (Mus musculus, UniProt P29477)", "T1 construct": "endogenous in cells; host or cells: RAW264.7 macrophage cells, LPS-stimulated", "T1 sequence (P29477 1-1144)": "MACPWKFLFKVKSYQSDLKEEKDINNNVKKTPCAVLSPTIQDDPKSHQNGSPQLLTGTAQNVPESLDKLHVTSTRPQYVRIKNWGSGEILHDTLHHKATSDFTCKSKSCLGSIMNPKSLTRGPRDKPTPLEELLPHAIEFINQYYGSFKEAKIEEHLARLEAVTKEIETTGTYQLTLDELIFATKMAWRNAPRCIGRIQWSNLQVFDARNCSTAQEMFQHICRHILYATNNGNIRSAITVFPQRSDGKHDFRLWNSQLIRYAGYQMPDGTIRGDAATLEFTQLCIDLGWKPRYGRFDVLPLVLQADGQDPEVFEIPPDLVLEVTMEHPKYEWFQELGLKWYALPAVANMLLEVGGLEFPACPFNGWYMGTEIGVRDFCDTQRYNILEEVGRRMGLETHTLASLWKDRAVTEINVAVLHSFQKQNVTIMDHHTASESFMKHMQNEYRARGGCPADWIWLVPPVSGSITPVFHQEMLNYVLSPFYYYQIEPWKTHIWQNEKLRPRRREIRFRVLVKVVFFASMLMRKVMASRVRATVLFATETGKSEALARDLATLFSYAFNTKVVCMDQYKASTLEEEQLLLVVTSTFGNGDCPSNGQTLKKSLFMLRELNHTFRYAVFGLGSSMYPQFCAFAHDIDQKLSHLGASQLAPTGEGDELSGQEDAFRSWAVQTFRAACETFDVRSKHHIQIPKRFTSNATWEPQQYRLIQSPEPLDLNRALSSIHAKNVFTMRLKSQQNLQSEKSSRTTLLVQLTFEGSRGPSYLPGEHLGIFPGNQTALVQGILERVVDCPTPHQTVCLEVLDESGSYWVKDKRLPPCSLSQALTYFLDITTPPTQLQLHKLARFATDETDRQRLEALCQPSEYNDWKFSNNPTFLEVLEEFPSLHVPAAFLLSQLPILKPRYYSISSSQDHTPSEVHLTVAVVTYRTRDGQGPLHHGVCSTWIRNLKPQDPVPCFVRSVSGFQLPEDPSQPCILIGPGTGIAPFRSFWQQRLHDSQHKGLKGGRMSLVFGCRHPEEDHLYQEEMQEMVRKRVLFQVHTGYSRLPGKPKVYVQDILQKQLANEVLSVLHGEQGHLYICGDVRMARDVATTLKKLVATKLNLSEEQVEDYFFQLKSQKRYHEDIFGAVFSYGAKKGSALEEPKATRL", "test": "Inhibition of LPS-induced iNOS activity (nitric oxide production) in RAW264.7 macrophage cells", "format": "cell-based", "settings": "LPS 1 μg/ml, 20 hr", "procedure": "The effect of xanthorrhizol on iNOS activity induced by LPS was measured. RAW264.7 macrophage cells were maintained in DMEM supplemented with penicillin-streptomycin and 10% FBS at 37° C., in 5% CO2 of humidified air. The cells in 10% FBS-DMEM without phenol red media were plated in 24-well plates (8×10^5/ml), and then incubated for 4 hr. The cells were replaced with new media, and incubated in the medium with 1 μg/ml of LPS and xanthorrhizol. After an additional 20 hr incubation, the media were removed and analyzed for nitrite accumulation as an indicator of NO production by the Griess reaction. 150 μl of Griess reagent were added to 100 μl of each supernatant from LPS and/or xanthorrhizol treated cells in triplicate. The plates were incubated for 10 min, and were read at 570 nm against a standard curve of NaNO2. The percentage inhibition was expressed as [1−(NO level of sample/NO level of vehicle treated−control)]×100."}},
  "data": [
    {"smiles": "CC(C)=CCC[C@@H](C)c1ccc(C)c(O)c1", "note": "[xanthorrhizol]", "values": [
      {"measurement": "proportion of cells in sub-G1 phase (apoptosis peak)", "setting": "HL-60 cells; 20 μM", "value": 36, "unit": "%"},
      {"measurement": "proportion of cells in sub-G1 phase (apoptosis peak)", "setting": "HL-60 cells; 60 μM", "value": 76, "unit": "%"},
      {"measurement": "QR induction ratio (treated/control)", "setting": "quinone reductase (QR); 0.4 μM", "value": "about 125%"},
      {"measurement": "QR induction ratio (treated/control)", "setting": "quinone reductase (QR); 50 μM", "value": "~130", "unit": "%"},
      {"measurement": "IC50", "setting": "iNOS; read-out: IC50, LPS-induced iNOS activity (NO) (converted)", "value": 4.63, "unit": "µM"},
      {"measurement": "inhibition at 10 µg/mL", "setting": "iNOS; RAW264.7, 10 μg/ml, read-out: percentage inhibition of LPS-induced nitric oxide production (iNOS activity)", "value": "≥ 99", "unit": "%"}
    ]}
  ]
}
